In patent publication US9469631B2 (Boehringer Ingelheim International GmbH, priority 2012, dated 2016) one finds EC50 data, which are given here for 23 compounds.

Structures are written as SMILES. pEC50: −log10 of the molar value.

For this test, the target named is human GPR119 (Homo sapiens (Human), UniProt Q8TDV5). Kind of test: AlphaScreen cAMP assay in MIN6 cells stably transfected with human GPR119. The test is classed as cell-based. Particulars: Min-6/hGPR119 cells, 45 min incubation at room temperature. As for the experimental part: The compounds of formula I according to the invention modulate the activity of the G-protein-coupled receptor GPR119. The effect of the compounds on the activation of GPR119 and on the stimulation of intracellular cAMP concentration is determined using the AlphaScreen cAMP Assay Kit (Cat. No. #6760625R) made by PerkinElmer.
Chain of human GPR119 (Q8TDV5 whole entry): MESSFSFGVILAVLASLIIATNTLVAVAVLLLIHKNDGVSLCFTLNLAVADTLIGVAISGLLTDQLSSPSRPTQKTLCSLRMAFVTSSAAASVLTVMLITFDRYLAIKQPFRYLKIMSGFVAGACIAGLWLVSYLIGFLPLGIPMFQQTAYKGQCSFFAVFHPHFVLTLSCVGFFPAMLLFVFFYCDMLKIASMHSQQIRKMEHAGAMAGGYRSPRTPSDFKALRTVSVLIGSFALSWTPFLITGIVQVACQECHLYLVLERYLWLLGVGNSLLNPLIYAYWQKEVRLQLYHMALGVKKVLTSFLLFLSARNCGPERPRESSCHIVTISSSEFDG
MIN6 cells [Miyazaki J et al. Endocrinology. 1990 July; 127(1):126-32] are stably transfected with an expression vector for human GPR119 cDNA (Acc. No. NP_848566). Min-6/hGPR119 cells are cultured in DMEM, 10% FBS, 50 μM β-mercaptoethanol, 0.3 mg/mL Geniticin, 2 mM GlutaMAX at 37° C. 5% CO2. For the assay, the cells are seeded in Optiplates (white, 384-well, 160W-barcoded, TC, sterile with lid, Cat. No. #6007688 (Perkin Elmer); 10000 cells/well; 50 μl). The plates covered with lids are then incubated for 24 hours at 37° C./5% CO2. After the medium is aspirated from the wells completely, 10 μl of the test compound are added, the compounds are diluted using stimulating buffer (140 mM NaCl, 3.6 mM KCl, 0.5 mM NaH2PO4, 0.5 mM MgSO4, 1.5 mM CaCl2, 10 mM Hepes, 5 mM NaHCO3; pH 7.4. 0.5 mM IBMX and 0.1% BSA, the final DMSO concentration is 1%). After 45 minutes incubation at room temperature (approx. 20° C.), the cAMP concentrations are determined using the AlphaScreen cAMP Assay Kit (Cat. No. #6760625R from PerkinElmer).
On the technique in general: Alpha assays give light when donor and acceptor beads are brought close together.
For orientation: pEC50 means the EC50 on a negative log10 scale, so that one unit is a factor of ten. Low readings indicate a high EC50, high ones a low EC50. `CC(C)(C)OC(=O)N1CCC(N(C(=O)c2ccc(-n3cncn3)cc2)C2CC2)CC1` [Example 63, 4-[Cyclopropyl-(4-[1,2,4]triazol-1-yl-benzoyl)-amino]-piperidine-1-carboxylic acid tert-butyl ester] had a pEC50 of 6.90.
Regarding `CC(C)(C)OC(=O)N1CCC(N(C(=O)c2ccc(-n3cccc3)cc2)C2CC2)CC1` [Example 64, 4-[Cyclopropyl-(4-pyrrol-1-yl-benzoyl)-amino]-piperidine-1-carboxylic acid tert-butyl ester], the negative logarithm of the EC50 (pEC50) is 6.56.
In turn, `CC(C)(C)OC(=O)N1CCC(N(C(=O)c2ccc(-c3ccco3)cc2)C2CC2)CC1` [Example 65, 4-[Cyclopropyl-(4-furan-2-yl-benzoyl)-amino]-piperidine-1-carboxylic acid tert-butyl ester] gave a pEC50 of 6.18.
Compound `CC(C)(C)OC(=O)N1CCC(N(C(=O)c2ccc(-c3nnc(N)s3)cc2)C2CC2)CC1` [Example 66, 4-{[4-(5-Amino-[1,3,4]thiadiazol-2-yl)-benzoyl]-cyclopropyl-amino}-piperidine-1-carboxylic acid tert-butyl ester] showed a pEC50 of 6.06.
Turning to `Cc1nc(-c2ccc(C(=O)N(C3CC3)C3CCN(C(=O)OC(C)(C)C)CC3)cc2)no1` [Example 67, 4-{Cyclopropyl-[4-(5-methyl-[1,2,4]oxadiazol-3-yl)-benzoyl]-amino}-piperidine-1-carboxylic acid tert-butyl ester], the pEC50 is 6.50.
For the compound `CC(C)(C)OC(=O)N1CCC(N(C(=O)c2ccc(-c3noc(Cc4ccccc4)n3)cc2)C2CC2)CC1` [Example 68, 4-{[4-(5-Benzyl-[1,2,4]oxadiazol-3-yl)-benzoyl]-cyclopropyl-amino}-piperidine-1-carboxylic acid tert-butyl ester], the pEC50 was 6.72.
Regarding `CC(C)(C)OC(=O)N1CCC(N(C(=O)c2ccc(-c3cncnc3)cc2)C2CC2)CC1` [Example 69, 4-[Cyclopropyl-(4-pyrimidin-5-yl-benzoyl)-amino]-piperidine-1-carboxylic acid tert-butyl ester], the pEC50 is 6.80.
`CC(C)(C)OC(=O)N1CCC(N(C(=O)c2ccc(-c3ccncc3)cc2)C2CC2)CC1` [Example 70, 4-[Cyclopropyl-(4-pyridin-4-yl-benzoyl)-amino]-piperidine-1-carboxylic acid tert-butyl ester] showed a pEC50 of 7.39.
In the case of `CC(C)(C)OC(=O)N1CCC(N(C(=O)c2ccc(-n3cccn3)cc2)C2CC2)CC1` [Example 71, 4-[Cyclopropyl-(4-pyrazol-1-yl-benzoyl)-amino]-piperidine-1-carboxylic acid tert-butyl ester], the pEC50 was 6.20.
`CN(C)C(=O)Nc1nc(-c2ccc(C(=O)N(C3CC3)C3CCN(C(=O)OC(C)(C)C)CC3)cc2)ns1` [Example 72, 4-(Cyclopropyl-{4-[5-(3,3-dimethyl-ureido)-[1,2,4]thiadiazol-3-yl]-benzoyl}-amino)-piperidine-1-carboxylic acid tert-butyl ester] had a pEC50 of 5.93.
The same measure for `CNC(=O)Nc1nc(-c2ccc(C(=O)N(C3CC3)C3CCN(C(=O)OC(C)(C)C)CC3)cc2)ns1` [Example 73, 4-(Cyclopropyl-{4-[5-(3-methyl-ureido)-[1,2,4]thiadiazol-3-yl]-benzoyl}-amino)-piperidine-1-carboxylic acid tert-butyl ester]: 6.30; for `CC(=O)Nc1nc(-c2ccc(C(=O)N(C3CC3)C3CCN(C(=O)OC(C)(C)C)CC3)cc2)ns1` [Example 74, 4-{[4-(5-Acetylamino-[1,2,4]thiadiazol-3-yl)-benzoyl]-cyclopropyl-amino}-piperidine-1-carboxylic acid tert-butyl ester]: 6.05; for `CC(C)(C)OC(=O)N1CCC(N(C(=O)c2ccc(-c3cccnc3)cc2)C2CC2)CC1` [Example 75, 4-[Cyclopropyl-(4-pyridin-3-yl-benzoyl)-amino]-piperidine-1-carboxylic acid tert-butyl ester]: 6.19.
For the compound `CN(C)C(=O)Nc1nnc(-c2ccc(C(=O)N(C3CC3)C3CCN(C(=O)OC(C)(C)C)CC3)cc2)s1` [Example 76, 4-(Cyclopropyl-{4-[5-(3,3-dimethyl-ureido)-[1,3,4]thiadiazol-2-yl]-benzoyl}-amino)-piperidine-1-carboxylic acid tert-butyl ester], the pEC50 is 6.63.
`CC(=O)Nc1nnc(-c2ccc(C(=O)N(C3CC3)C3CCN(C(=O)OC(C)(C)C)CC3)cc2)s1` [Example 77, 4-{[4-(5-Acetylamino-[1,3,4]thiadiazol-2-yl)-benzoyl]-cyclopropyl-amino}-piperidine-1-carboxylic acid tert-butyl ester] showed a pEC50 of 6.40.
For `CCOC(=O)c1cnn(-c2ccc(C(=O)N(C3CC3)C3CCN(C(=O)OC(C)(C)C)CC3)cc2)c1C` [Example 78, 4-{Cyclopropyl-[4-(4-ethoxycarbonyl-5-methyl-pyrazol-1-yl)-benzoyl]-amino}-piperidine-1-carboxylic acid tert-butyl ester], the pEC50 was 7.12.
Take `CCOC(=O)c1c(C)nn(-c2ccc(C(=O)N(C3CC3)C3CCN(C(=O)OC(C)(C)C)CC3)cc2)c1C` [Example 79, 4-{Cyclopropyl-[4-(4-ethoxycarbonyl-3,5-dimethyl-pyrazol-1-yl)-benzoyl]-amino}-piperidine-1-carboxylic acid tert-butyl ester]: the pEC50 is 5.99.
On to `CC(C)(C)OC(=O)N1CCC(N(C(=O)c2ccc(-c3ccsc3)cc2)C2CC2)CC1` [Example 80, 4-[Cyclopropyl-(4-thiophen-3-yl-benzoyl)-amino]-piperidine-1-carboxylic acid tert-butyl ester], for which the pEC50 was 6.46.
With `CC(C)(C)OC(=O)N1CCC(N(C(=O)c2ccc(-n3cnc(-c4ccccc4)c3)c(Cl)c2)C2CC2)CC1` [Example 81, 4-{[3-Chloro-4-(4-phenyl-imidazol-1-yl)-benzoyl]-cyclopropyl-amino}-piperidine-1-carboxylic acid tert-butyl ester], the pEC50 is 6.83.
Turning to `CNC(=O)Nc1nnc(-c2ccc(C(=O)N(C3CC3)C3CCN(C(=O)OC(C)(C)C)CC3)cc2)s1` [Example 82, 4-(Cyclopropyl-{4-[5-(3-methyl-ureido)-[1,3,4]thiadiazol-2-yl]-benzoyl}-amino)-piperidine-1-carboxylic acid tert-butyl ester], the negative logarithm of the EC50 (pEC50) was 6.40.
Then `Cc1c(-c2ccccc2)ncn1-c1ccc(C(=O)N(C2CC2)C2CCN(C(=O)OC(C)(C)C)CC2)cc1` [Example 83, 4-{Cyclopropyl-[4-(5-methyl-4-phenyl-imidazol-1-yl)-benzoyl]-amino}-piperidine-1-carboxylic acid tert-butyl ester], with 6.54; and `Cc1nc(-c2ccccc2)cn1-c1ccc(C(=O)N(C2CC2)C2CCN(C(=O)OC(C)(C)C)CC2)cc1` [Example 84, 4-{Cyclopropyl-[4-(2-methyl-4-phenyl-imidazol-1-yl)-benzoyl]-amino}-piperidine-1-carboxylic acid tert-butyl ester], with 7.02; and `COc1ccc(-c2ccc(C(=O)N(C3CC3)C3CCN(C(=O)OC(C)(C)C)CC3)cc2)cc1` [Example 86, 4-[Cyclopropyl-(4′-methoxy-biphenyl-4-carbonyl)-amino]-piperidine-1-carboxylic acid tert-butyl ester], with 6.40.
